As a reminder, the IC50 is the midpoint of a concentration-inhibition curve.

Data set [1] has as its system K562, CEM and SKI-DLCL cell lines. Put plainly: Combination of IC20 aplidine with a dose range of additional drug (Table 1). The class given is cell-based. As to the method:
Drug combination studies were carried out on established cell lines rather than primary cells. We studied three cell lines, viz. K562 as a model for acute myeloid leukemia, CEM representing acute lymphocytic leukemia and SKI-DLCL representing diffuse large cell lymphoma. Combination studies with IC20 and IC 50 dose of aplidine with a dose range of methotrexate, cytosine arabinoside and doxorubicin were tested to determine if aplidine could potentiate the effect of these drugs.

Data set [2] has as its system SKI-DLCL cells. The settings on record: for IC50: 96 hours.
Experimental: (§3) Cell viability is measured by XTT assay in an automated plate reader.
(§4) All the citotoxicity studies were performed by using XTT or MTS.
(§5) Data was obtained after cell incubation for 96 hours and using XTT asay. The results represent means of three different experiments.
The test system of another data set is CEM-T leukemic cells. Put plainly: In vivo antitumor effect in SCID mice xenograft model. Conditions: AraC alone at 50 mg/kg, intra-peritoneally. As to the method:
SCID mice were inoculated subcutaneously in the right flank with 10^7 CEM-T leukemic cells. They were observed twice weekly for tumor formation at the site of inoculation. After establishment of palpable tumor, alidine was injected as single agent and in combination with several doses of AraC to determine the antitumor effect. Mice were randomized to receive alidine alone at doses of 0.75 mg/kg and 1 mg/kg, AraC alone at 50 mg/kg, or combination of Aplidine and AraC for all dose combinations. […] All drugs were administered intra-peritoneally, and tumor size was compared to a control group of mice not receiving any treatment and for combination groups, compared to tumor sizes with single agent treatment.

The test system of data set [3] is K562 cells. Put plainly: XTT/MTS cytotoxicity, single agents and combinations, K562. Conditions: for Viability (% of control): K562, single agent at its IC50 dose. On the technique in general: Formazan colour is commonly taken as a measure of viable cells.
Experimental: as §3
(§6) Chou-Talalay analysis was used to analyze the drug combinations.
(§7) All the citotoxicity studies were performed by using XTT or MTS. We first determined the IC50 dose of these drugs in SKI-DLCL, CCRF-CEM and K562 cell lines. We investigated drug combinations using IC50(Aplidine):IC50(DrugX) fixed ratio.
In the next data set the test system is CCRF-CEM cells. The experiment in a line: XTT/MTS cytotoxicity, single agents and combinations, CCRF-CEM. Conditions: for Viability (% of control): single agent at its IC50 dose.
Data set [4] has as its system SKI-DLCL cells. Put plainly: cells. Conditions: 96 h.
Experimental: as §3, §4, §5
The nature of data set [5]: Determination of maximum tolerated dose in SCID mice. The class given is in vivo, C.B.-17 scid/scid (SCID) mice. Conditions: total dose given in five daily doses. From the text:
We have used an in vivo model of human lymphoma in SCID mice for this purpose. Specifically, we have used CCRF-CEMS cells and CB.17 scid/scid mice. We have experience with this model and have evaluated drug treatments using this xenograft (Lacerda J. F. et al. Blood 85 (10): 2675-2679 (1995)).

For a further data set, the system named is preB-ALL (DM4) cells. The experiment in a line: Viability of primary preB-ALL (DM4) cells cultured with aplidine. The format is cell-based, human. As for the experimental part:
(§1) Aplidine was tested against various primary cells from patients with hematologic malignancies. The cells used were: • fresh cells obtained from six chronic lymphocytic leukemia patients • primary cell from a patient with preB-ALL (DM4)
(§2) Patient samples were obtained with prior consent and CLL cells were isolated by density gradient centrifugation over histopaque. The media used was RPMI supplemented with 10% autologous serum and L-glutamine. The cultures were incubated with 10 nM aplidine and cell viability was measured days 3, 7,11 and 18 and compared with viability of untreated cells and STI 571 (0.5 mM).

For data set [6] the following is noted: solubilised, heat and light stress; cited from earlier work.
The subject of data set [7] is chronic lymphocytic leukemia (CLL) cells. Put plainly: Viability of fresh primary CLL cells cultured with aplidine. The class given is cell-based, human. As to the method:
as §1, §2

Data set [8] has as its system AML and ALL samples from pediatric patients. Conditions: de novo or relapsed ALL and AML; cited from earlier work.
A further data set concerns ALL-MOLT4 cells. The settings on record: cited from earlier work.
The conditions of data set [9]: at maximum tolerated doses, clinical Phase I; except for mild lymphopenia; cited from earlier work.
Data set [10] deals with K562 cells.
Experimental: as §3, §6, §7
Setting [11] is: SKI-DLCL, single agent at its IC50 dose.
Setting [12] is: read-out: IC50 dose, single agent, SKI-DLCL.
[13] abbreviates: read-out: IC50 dose, single agent, 96 hours.
[14] abbreviates: Homo sapiens, K562, No Aplidine.
The mark [15] stands for this setting: Homo sapiens, K562, with IC20 Aplidine (0.5 nM).
[16] abbreviates: Homo sapiens, K562, 96 h, read-out: IC50 dose, single agent, K562, 96 hours.

Read-outs that look alike come from different tables or passages of the source. Numbered stars: 1 amine (or outer) side, 2 acyl side, 3 side chain; on linkers, the order of the positions; unused ones are H or OH. Bridge positions count the residues as written; N and C are the ends. Square brackets hold non-standard residues; d marks the D form. Peptide text beside a SMILES is read from it. * marks the point of attachment. X1 = CC[C@H](C)[C@@H](N[*:1])[C@@H](O)CC(=O)O[C@H](C(=O)[C@H](C)C(=O)[*:2])C(C)C; NMeY = CN[C@@H](Cc1ccc(O)cc1)C(=O)O; dNMeL = CN[C@H](CC(C)C)C(=O)O; Pyruvoyl = CC(=O)C(=O)*

Experimental for CCRF-CEM cells: as §3, §4, §5

For the compound `Nc1ccn([C@@H]2O[C@H](CO)[C@@H](O)[C@@H]2O)c(=O)n1` [AraC, cytosine arabinoside], the half-inhibitory concentration (IC50) in data set [1] (No Aplidine) came to 30 nM; in data set [1] (with IC20 Aplidine (0.5 nM)), 6 nM; with SKI-DLCL cells [2] (read-out: IC50 dose of AraC, SKI-DLCL, in combination with IC20 (APL), XTT), 1.6 nM; with SKI-DLCL cells [2] (setting [12]), 30 nM; with K562 cells [3] (read-out: IC50 dose, single agent, K562, 96 hours), 30 nM; with CCRF-CEM cells (read-out: IC50 dose of AraC, in combination with IC20 (APL), 96 hours, XTT), 0.8 nM. For the same compound, the 50% inhibitory concentration (IC50) with CCRF-CEM cells (setting [13]) came out at 10 nM. Moreover, the entries for the “Viability (% of control)” value with SKI-DLCL cells [2] (setting [11]), with K562 cells [3] and in the data set with CCRF-CEM cells were 50 % of control, 50 % of control and 56.4 % of control, respectively. In the data set with CEM-T leukemic cells, the “in vivo antitumor effect (tumor growth)” value is given as “tumor growth was inhibited but no tumor regression occurred”.

For `COc1cccc2c1C(=O)c1c(O)c3c(c(O)c1C2=O)C[C@@](O)(C(=O)CO)C[C@@H]3O[C@H]1C[C@H](N)[C@H](O)[C@H](C)O1` [Dox, doxorubicin], the IC50 was 18 nM in data set [1] (setting [14]), 1 nM in [1] (setting [15]) and 5 nM with SKI-DLCL cells [4] (read-out: IC50 dose). In addition, the “Viability (% of control)” value in the data set on SKI-DLCL cells [2] (setting [11]) is 50 % of control.

Consider `CN(Cc1cnc2nc(N)nc(N)c2n1)c1ccc(C(=O)N[C@@H](CCC(=O)O)C(=O)O)cc1` [MTX, methotrexate], for which the IC50 in data set [1] (setting [14]) was 5 nM; in data set [1] (setting [15]) it was 0.5 nM; with CCRF-CEM cells (setting [13]), 10 nM. In addition, the “Viability (% of control)” value in the data set with CCRF-CEM cells is 50 % of control.

In the case of `C[C@H]1C[C@@H]2[C@H]([C@@H](O)C[C@@]3(C)[C@H]2CC[C@]3(O)C(=O)CO)[C@@]2(C)C=CC(=O)C=C12` [Metpred, methylprednisolone], the “Viability (% of control)” value in the data set on SKI-DLCL cells [2] (setting [11]) was 51 % of control. In addition, the IC50 with SKI-DLCL cells [4] (read-out: IC50 dose) amounted to 160 nM.

Take `O=C1c2c(O)ccc(O)c2C(=O)c2c(NCCNCCO)ccc(NCCNCCO)c21` [Mitox, mitoxantrone]: the “Viability (% of control)” value in the data set with SKI-DLCL cells [2] (setting [11]) is given as 50 % of control; in the data set on K562 cells [3], 50.7 % of control; in the data set with CCRF-CEM cells, 56 % of control. Moreover, the IC50 in the data set on SKI-DLCL cells [4] (read-out: IC50 dose) was found to be 5 nM; in the data set with K562 cells [3] (setting [16]) it was 7.5 nM; in the data set with CCRF-CEM cells (setting [13]), 30 nM.

Turning to `CC[C@]1(O)C[C@@H]2CN(CCc3c([nH]c4ccccc34)[C@@](C(=O)OC)(c3cc4c(cc3OC)N(C)[C@H]3[C@@](O)(C(=O)OC)[C@H](OC(C)=O)[C@]5(CC)C=CCN6CC[C@]43[C@@H]65)C2)C1` [Vinb, vinblastine], the “Viability (% of control)” value in the data set on SKI-DLCL cells [2] (setting [11]) was 50 % of control. Also, the IC50 with SKI-DLCL cells [4] (read-out: IC50 dose) came out at 4 nM.

`CC[C@H](C)[C@H]1NC(=O)[C@@H](NC(=O)[C@@H](CC(C)C)N(C)C(=O)[C@@H]2CCCN2C(=O)C(C)=O)[C@@H](C)OC(=O)[C@H](Cc2ccc(OC)cc2)N(C)C(=O)[C@@H]2CCCN2C(=O)[C@H](CC(C)C)NC(=O)[C@@H](C)C(=O)[C@H](C(C)C)OC(=O)C[C@@H]1O` [aplidine, Dehydrodidemnin B] (Pyruvoyl-P[dNMeL]T[X1]LP[NMeY](Me); ester 3-C): the “maximum dose that can be tolerated (MTD)” value in data set [5] is on record as 1 mg/kg/week. Besides, the “inhibition of preB-ALL cells in culture” value with preB-ALL (DM4) cells (FIG. 2) is given as “potent inhibitor”. For the same compound, the IC50 with preB-ALL (DM4) cells (Homo sapiens, 72 h, DM4 line, 3 day exposure) was 10 nM; with SKI-DLCL cells [2] (setting [12]), 0.5 nM; in [7] (Homo sapiens, CLL cell, 264 h, primary CLL samples, 11 day exposure) it was 10 nM; in the data set with SKI-DLCL cells [4] (read-out: IC50 dose, single agent, SKI-DLCL, 96 hours), 0.5 to 1 nM; with K562 cells [3] (setting [16]) it was 0.5 to 1 nM; with K562 cells [3] (read-out: IC50 dose, single agent, K562, 96 hours, listed as APL) it was 1 nM. Besides, the IC50 in the data set on CCRF-CEM cells (setting [13]) is 0.5 nM. The “Viability (% of control)” value in the data set on SKI-DLCL cells [2] and in the data set with K562 cells [10] was 50 % of control each time. For the same compound, in data set [6], the “degradation under stress testing” value is reported as “substantial degradation”. The “growth of CLL cells in culture” value in data set [7] (FIG. 1) is listed as “inhibits growth”. Further, in data set [8], the “concentration with in vitro cytotoxic activity” value is 5 nM. In the data set on ALL-MOLT4 cells, the VEGF secretion result is “block VEGF secretion”. Besides, the myelotoxicity result in [9] is reported as “not myelotoxic”.

(Values after patent US7576188B2, “Antitumoral treatments” (Pharma Mar, S.A.U., priority 2004, dated 2009).)
